Measurements: US9758527B2, “Cyclohexene derivative, preparation method therefor, and pharmaceutical composition for preventing or treating metabolic diseases, containing same as active ingredient” (HYUNDAI PHARM CO., LTD., priority 2014, dated 2017)
Where a name gives a salt, the structure may show the parent alone. Read-outs that look alike come from different tables or passages of the source.

What was measured:
[1] = Weight change in diet-induced obesity (DIO) rat model, 4-week administration; type: in vivo, male Sprague Dawley (SD) rats; settings: DIO rats, oral, 4 weeks
Method: To simultaneously evaluate both the weight-loss and hypoglycemic effects of the cyclohexene derivative according to the present invention, experiments were carried out, as follows.
Specifically, male Sprague Dawley (SD) rats (approximately 4 weeks old) in a diet-induced obesity model were fed with a high-fat diet (Lab. Diet Co.) for approximately 10 weeks to induce high-fat diet-induced obesity (DIO). The rats undergoing the high-fat diet were randomly selected, and divided into groups (n=8) for respective administrations. The compounds of Comparative Examples 3 and 4 and Examples 48 and 119 were administered to the divided DIO rats each group for 4 weeks.
The weights of the DIO rats were measured twice a week during a period of administration of 4 weeks to record a change in the weights. At the end of the 4-week period of administration, a hypoglycemic effect was evaluated using an oral glucose tolerance test (OGTT), as follows.
FIG. 1 is a graph determining the changes in weights of rats after compounds of Example 48 and Comparative Examples 3 and 4 according to the present invention are administered to a diet-induced obesity (DIO) rat model for 4 weeks (In FIG. 1, the term “untreated group (Vehicle)” represents an untreated group in a high-fat DIO rat model; and the term “Lean” represents an untreated group in a normal SD rat model rather than a disease model).

[2] = molecular target: T1, G protein-coupled receptor 119 (GPR-119) (Mesocricetus auratus, UniProt A0A1U8CD06); assay: Evaluation of cAMP activity in HIT-T15 cells (HTRF cAMP dynamic kit); type: cell-based, hamster; settings: cAMP activation
T1 construct: hamster-derived β-cells containing G protein-coupled receptor 119 (GPR-119), HIT-T15 cells; host or cells: HIT-T15 (hamster pancreatic β-cells)
T1 sequence (A0A1U8CD06 1-334): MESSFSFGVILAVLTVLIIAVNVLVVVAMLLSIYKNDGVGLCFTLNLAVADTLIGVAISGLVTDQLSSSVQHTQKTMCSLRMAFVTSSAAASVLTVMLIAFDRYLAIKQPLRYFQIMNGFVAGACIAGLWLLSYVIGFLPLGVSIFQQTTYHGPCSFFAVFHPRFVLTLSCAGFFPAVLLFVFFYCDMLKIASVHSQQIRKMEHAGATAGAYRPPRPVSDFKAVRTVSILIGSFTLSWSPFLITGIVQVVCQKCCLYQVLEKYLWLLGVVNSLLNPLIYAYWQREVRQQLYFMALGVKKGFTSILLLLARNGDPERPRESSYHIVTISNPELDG
Summary of the method: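 HIT-T15 cells, 60,000/well, treated next day with compound at six concentrations ([…]) for 1 h at 37° C. Lysate cAMP quantified by HTRF competitive immunoassay (D2-cAMP, cryptate anti-cAMP); activity taken as change in FRET signal relative to DMSO.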

blood glucose level = assay: Oral glucose tolerance test (OGTT) in high-fat diet model; type: in vivo; settings: hypoglycemic level, 20 mg/kg oral, glucose 2 g/kg oral after 30 minutes; for inhibition in vivo at 20 mg/kg: Mus musculus, 2 h, read-out: % AUC
Method: To evaluate in vivo effective effects of the cyclohexene derivatives according to the present invention, experiments were carried out, as follows.
Specifically, male C57BL/6J (C57 black 6) […] (8 to 10 weeks old) in a high-fat diet model were acclimated for at least 7 days, and only healthy rat populations were selected and subjected to an oral glucose tolerance test (OGTT). The rats were fasted for 12 to 15 hours, and then randomly divided into groups with five rats per group. Thereafter, each of the compounds of Examples 1, 14, 48, 69, 80, 118, 139, 147, 148, 169, 190, 199, 200, 204, 227, and Comparative Examples 1 and 2 according to the present invention was administered to the rats at a dose of 20 mg/kg. In this case, a vehicle (0.5%, carboxymethyl cellulose (CMC)) was administered as an untreated group, and the dose of the compound administered together with the vehicle was orally administered at 10 ml/kg. After 30 minutes of administration, glucose (2 g/kg) was orally administered at a dose of 10 ml/kg. A blood glucose level was measured using an Accu-Chek Active Strip (Rosche Diagnostic Co.). In this case, the glucose level in blood collected via caudal venipuncture was measured at time points of −30, 0, 20, 40, 60, and 120 minutes after glucose administration.
In Table 3, the unit “% AUC (area under the curve)” represents a hypoglycemic level.

in vivo = settings: female, Ihara's cataract rats (ICR), rat, po
Method: To evaluate acute toxicity of the cyclohexene derivative according to the present invention, experiments were carried out, as follows.
Five 7-week-old female Ihara's cataract rats (ICRs) were supplied by Nara Biotech Co. Ltd., housed in a breeding farm, and acclimated to new environments while being fed with general solid feeds and water. When the rats were 8 weeks old, experiments were carried out. Environmental conditions were maintained constant: a set temperature of 23±3° C., a humidity of 55±15%, an illuminance of 150 to 300 Lux, a ventilation rate of 10 to 20 times/hour, and a lighting time of 12 hours (light-dark cycle: lighting at 8 a.m. and lights-out at 8 p.m.). As the feeds, solid feeds for laboratory animals (5L79 Lab Diet, Purina Mills, Richmond, Ind., USA), which had been sterilized by exposure to radiation, were provided by Orientbio Inc. so that rats were allowed to freely consume the solid feeds. As the water, running water was disinfected using a UV sterilizer and an ultra-filtration system, and then provided o that rats were allowed to freely drink the water in a water bottle. Analyses of contaminants in the water and feeds were carried out according to the ChemOn Inc.'s standard operating procedure (SOP). […]

[3] = 1 h at 37° C., six concentrations, read-out: EC50

Row | SMILES | EC50 [2, 3] [nM] | inhibition in vivo at 20 mg/kg (blood glucose level) [%] | EC50 ([2]; read-out: EC50 value) [nM] | other results
1 | CN(C)C(=N)NC(=N)N [Comparative Example 3, Metformin] | – | – | – | weight-loss effect ([1]; 300 mg/kg): the weight rather increased after 2 weeks of the oral administration
2 | CC(C)CC(N(C)C)C1(c2ccc(Cl)cc2)CCC1 (stereo not shown) [Comparative Example 4, Sibutramine] | – | – | – | weight-loss effect ([1]; 5 mg/kg): the weight rather increased after 2 weeks of the oral administration
3 | CC(C)c1noc(N2CCC(COc3ccc(C4=CCC(C(=O)NC(CO)CO)CC4)cc3F)CC2)n1 (stereo not shown) [Example 80, N-(1,3-dihydroxypropan-2-yl)-4-(3-fluoro-4-((1-(3-isopropyl-1,2,4-oxadiazol-5-yl)piperidin-4-yl)methoxy)phenyl)cyclohex-3-enecarboxamide] | 89 | 19.7 | – | –
4 | CCc1cnc(N2CCC(COc3ccc(C4=CCC(C(=O)N5CCC[C@@H]5CO)CC4)cc3)CC2)nc1 (stereo partly drawn) [Example 118, (4-(4-((1-(5-ethylpyrimidin-2-yl)piperidin-4-yl)methoxy)phenyl)cyclohex-3-enyl)((R)-2-(hydroxymethyl)pyrrolidin-1-yl)methanone] | 31 | 23.5 | ≤ 50 | –
5 | CCc1cnc(N2CCC(COc3ccc(C4=CCC(C(=O)N5CCC[C@H]5CO)CC4)cc3)CC2)nc1 (stereo partly drawn) [Example 119, (4-(4-((1-(5-ethylpyrimidin-2-yl)piperidin-4-yl)methoxy)phenyl)cyclohex-3-enyl)((S)-2-(hydroxymethyl)pyrrolidin-1-yl)methanone] | 6.8 | – | ≤ 50 | LD50 (in vivo): ≥ 2000 mg/kg
6 | CC(C)c1noc(N2CCC(COc3ccc(C4=CCC(C(=O)NCC(=O)N5CCC[C@H]5C#N)CC4)cc3F)CC2)n1 (stereo partly drawn) [Example 139, N-(2-((S)-2-cyanopyrrolidin-1-yl)-2-oxoethyl)-4-(3-fluoro-4-((1-(3-isopropyl-1,2,4-oxadiazol-5-yl)piperidin-4-yl)methoxy)phenyl)cyclohex-3-enecarboxamide] | 130 | 25.4 | – | –
7 | CC(C)c1noc(N2CCC(COc3ccc(C4=CCC(C(=O)N5CCC[C@@H]5CO)CC4)cc3)CC2)n1 (stereo partly drawn) [Example 147, ((R)-2-(hydroxymethyl)pyrrolidin-1-yl)(4-(4-((1-(3-isopropyl-1,2,4-oxadiazol-5-yl)piperidin-4-yl)methoxy)phenyl)cyclohex-3-enyl)methanone] | 6.9 | 23.3 | ≤ 50 | –
8 | CC(C)c1noc(N2CCC(COc3ccc(C4=CCC(C(=O)N5CCC[C@H]5CO)CC4)cc3)CC2)n1 (stereo partly drawn) [Example 148, ((S)-2-(hydroxymethyl)pyrrolidin-1-yl)(4-(4-((1-(3-isopropyl-1,2,4-oxadiazol-5-yl)piperidin-4-yl)methoxy)phenyl)cyclohex-3-enyl)methanone] | 13 | 22.6 | ≤ 50 | –
9 | CCc1cnc(N2CCC(COc3ccc(C4=CCC(C(=O)N5CCC(CO)CC5)CC4)cc3)CC2)nc1 (stereo not shown) [Example 169, (4-(4-((1-(5-ethylpyrimidin-2-yl)piperidin-4-yl)methoxy)phenyl)cyclohex-3-enyl)(4-(hydroxymethyl)piperidin-1-yl)methanone hydrochloride] | 9 | 21.7 | – | –
10 | CCN(CCO)C(=O)C1CC=C(c2ccc(OCC3CCN(C(=O)OC(C)(C)C)CC3)cc2)CC1 (stereo not shown) [Example 199, tert-butyl 4-((4-(4-(ethyl(2-hydroxyethyl)carbamoyl)cyclohex-1-enyl)phenoxy)methyl)piperidine-1-carboxylate] | 8 | 20.9 | ≤ 50 | –
11 | CC(C)(C)OC(=O)N1CCC(COc2ccc(C3=CCC(C(=O)N4CCC(CCO)CC4)CC3)cc2)CC1 (stereo not shown) [Example 200, tert-butyl 4-((4-(4-(4-(2-hydroxyethyl)piperidine-1-carbonyl)cyclohex-1-enyl)phenoxy)methyl)piperidine-1-carboxylate] | 23 | 24 | ≤ 50 | –
12 | CC(C)(C)OC(=O)N1CCC(COc2ccc(C3=CCC(C(=O)N4CCCCC4)CC3)cc2)CC1 (stereo not shown) [Example 204, tert-butyl 4-((4-(4-(piperidine-1-carbonyl)cyclohex-1-enyl)phenoxy)methyl)piperidine-1-carboxylate] | 9 | 24 | ≤ 50 | –
13 | CCc1cnc(N2CCC(COc3ccc(C4=CCC(C(=O)N5CCC(C#N)CC5)CC4)cc3)CC2)nc1 (stereo not shown) [Example 227, 1-(4-(4-((1-(5-ethylpyrimidin-2-yl)piperidin-4-yl)methoxy)phenyl)cyclohex-3-enecarbonyl)piperidine-4-carbonitrile] | 6 | 26.8 | ≤ 50 | –
14 | CCc1cnc(N2CCC(COc3ccc(C4=CCC(C(=O)N5CCC(=NO)CC5)CC4)cc3)CC2)nc1 (stereo not shown) [Example 277, (4-(4-((1-(5-ethylpyrimidin-2-yl)piperidin-4-yl)methoxy)phenyl)cyclohex-3-enyl)(4-(hydroxyimino)piperidin-1-yl)methanone] | 20 | – | – | % AUC (blood glucose level): 19.8 % AUC
